“Also recorded” adds a separate entry of the source.
Assays:
Type in all cases: in vivo, human
[1] = test system: subjects who met the Rome Criteria for IBS; experiment: Brief Mood Survey in IBS study; conditions: for Regression analysis: dependence of mood score on drug dosage: larger doses
Description: (§1) This is a longitudinal single blinded, randomized placebo controlled study in which patients act as their own controls. Subjects were volunteers who met the Rome Criteria for IBS and without other active bowel disease (i.e. GERD, colon cancer). Both adult men and women participated, ranging in age from 23 to 75 years old, with greater number of women by a ratio of 2.5:1. Subjects responded to a Bowel Symptom Questionnaire (B. Naliboff, UCLA) as well as a Brief Mood Survey (D. Burns, Stanford). […] In addition, data was collected during a washout period of one week without any study drug.
(§2) Benefit in treating chronic IBS using nerve-acting agents was quantified by a decrease in mean values of abdominal pain with a 20-point Visual Analogue scale and a decrease in bowel symptoms (bloating, etc.) using a 20-point scale. Mood was also followed by a Brief Mood Survey, which rates Depression, Anxiety, Panic, Anger and Suicidal Urge (88 points maximum total).

[2] = test system: subjects who met the Rome Criteria for IBS; experiment: IBS study, symptom scores overall (VAS pain, bloating, mood); conditions: for Drug effect versus placebo effect, overall / Reduction of symptoms overall (H0 no reduction vs H1 some reduction): result in words
Description: as §1
(§3) A titration period of three to four weeks is being used to stabilize each patient on an efficacious dose of medication. […] During each week of the titration period, the cocktail was modified to allow a gradual increase or decrease in dose. Results were collected weekly by questionnaires.
as §2

[3] = test system: subjects who met the Rome Criteria for IBS; experiment: Bloating score (20-point scale, Bowel Symptom Questionnaire) in IBS study; conditions: for Regression analysis: dependence of bloating score on drug dosage: larger doses
Description: as §1, §3, §2

[4] = test system: subjects who met the Rome Criteria for IBS; experiment: VAS abdominal pain score (20-point Visual Analogue scale) in IBS study; conditions: for Regression analysis: dependence of VAS score on drug dosage: larger doses; for p-value of drop in mean VAS pain scores: oral
Description: as §1, §3, §2

[5] = test system: subjects who met the Rome Criteria for IBS; experiment: Side effects reported in IBS study; conditions: 25 mg qhs; resolved after discontinuation
Description: This is a longitudinal single blinded, randomized placebo controlled study in which patients act as their own controls. Subjects were volunteers who met the Rome Criteria for IBS and without other active bowel disease (i.e. GERD, colon cancer). Both adult men and women participated, ranging in age from 23 to 75 years old, with greater number of women by a ratio of 2.5:1. Subjects responded to a Bowel Symptom Questionnaire (B. Naliboff, UCLA) as well as a Brief Mood Survey (D. Burns, Stanford). Baseline questionnaire results were taken just prior to any drug treatment as well as shortly after. In addition, data was collected during a washout period of one week without any study drug. Drugs studied included intravenous lidocaine and a trial of the oral mexiletine, topiramate, gabapentin or placebo.
as §3

[6] = intravenous, 22 subjects, 20 point scale

Compound | Effect on mood (H0 no reduction vs H1 some reduction) ([1]; result in words) | Relief of symptoms of abdominal pain, bloating and distension in IBS ([2]; intravenous) | Drug effect versus placebo effect, overall [2] | Reduction of symptoms overall (H0 no reduction vs H1 some reduction) [2] | Reduction of symptoms overall (H0 no reduction vs H1 some reduction) ([2]; listed as Lidocaine) | Bloating, mean reduction [3, 6] | Reduction of bloating (H0 no reduction vs H1 some reduction) ([3]; result in words) | VAS Pain scores, mean reduction [4, 6] | Reduction of VAS (H0 no reduction vs H1 some reduction) ([4]; result in words) | Side effects reported: fatigue, number of subjects [5] | Regression analysis: dependence of any score on drug dosage ([2]; larger doses) | Effect on decreasing bloating ([3]; 60 mg) | Bloating: drug effect versus placebo effect ([3]; result in words) | VAS: drug effect versus placebo effect ([4]; result in words) | Regression analysis: dependence of mood score on drug dosage [1] | Regression analysis: dependence of bloating score on drug dosage [3] | Regression analysis: dependence of VAS score on drug dosage [4] | p-value of drop in mean VAS pain scores ([4]; 300 mg) | p-value of drop in mean VAS pain scores ([4]; 600 mg) | Results in decreasing bloating ([3]; all dosages, 300 mg, 450 mg & 900 mg)
CCN(CC)CC(=O)Nc1c(C)cccc1C [lidocaine] | highly significant | very effective | much stronger effect than placebo | All patients had a significant drop in their scores | most influential drug of all | 6.8 | highly significant | 4.80 | highly significant |  |  |  |  |  |  |  |  |  |  | 
CC1(C)O[C@@H]2[C@@H](CO[C@@]3(COS(N)(=O)=O)OC(C)(C)O[C@@H]23)O1 [topiramate] |  |  |  | least effect of all drugs; also recorded: barely become significant at doses of 50 mg and higher |  |  |  |  |  | Two | do not significantly reduce any score in a predictable manner | borderline effect | different from placebo for VAS and bloating at doses 50 mg and higher | different from placebo for VAS and bloating at doses 50 mg and higher |  |  |  |  |  | 
NCC1(CC(=O)O)CCCCC1 [gabapentin] |  |  | different from placebo at doses 600 mg and higher | become more pronounced as the dosage is increased |  |  |  |  |  |  |  |  |  |  | not very important for mood | some effect | some effect | 0.06 | 0.04 | 
Cc1cccc(C)c1OCC(C)N (centres unmarked) [mexiletine] |  |  |  | significant at all dosages |  |  |  |  |  |  |  |  | different from placebo at all levels | different from placebo at all levels | not very important for mood | some effect | some effect |  |  | significant results in decreasing bloating
